Laboratory results as given in US20250353825A1, “CANNABICYCLOL DERIVATIVES AND PREPARATION METHODS THEREOF” (priority 2023, published 2025).
≈ marks a conversion by molar mass, not a printed value.

Key:
ASPC1-CSC = assay: MTS cell viability assay, ASPC1-CSC; type: cell-based; conditions: Table 6, tumor stem cell, 72 hours; read-out: IC50 against ASPC1-CSC
Procedure: (§1) Primary viability screening: (1) the synthesized compounds 3a to 13d were respectively dissolved in DMSO to prepare a 40 μg/mL cannabicyclol and cannabicyclol derivative solutions.
(§2) (2) A control group: a 200 μL DMSO solvent.
(§3) (3) The solutions of compounds 3a to 13d were diluted in a twofold gradient to obtain cannabicyclol and cannabicyclol derivative solutions at concentrations of 40 μg/mL, 20 μg/mL, 10 μg/mL, 5 μg/mL, 2.5 μg/mL, 1.25 μg/mL, and 0.625 μg/mL, and 0.3125 μg/mL, respectively.
(§4) (4) Three glioblastoma stem cells (GSC-3, GSC-12, and GSC-18), three pancreatic cancer cell-derived stem cells (PANC-1-CSC, BXPC-3-CSC, and ASPC1-CSC), three liver cancer cell-derived stem cells (HepG2-CSC, MHCC97H-CSC, and SMMC7721-CSC), HEK-293T cells, 16 tumor cells (U251, U87, T98G, PANC1, BXPC3, ASPC1, HepG2, MHCC97H, SMMC7721, PC3, SKOV3, MDA-MB231, A549, HCT116, HEC-1B, MKN28), and differentiated glioblastoma stem cells (GSC-3diff and GSC-12diff) derived from GSC-3 and GSC-12 (all of the cells were provided by the Laboratory of Tumor Animal Model Preparation and Application Research, West China Hospital, Sichuan University) were inoculated into a 96-well plate at a concentration of 2×10^4 cells/well, and 100 μL of culture medium was then added to each well; […]
(§5) (10) The absorbance value at 490 nm was measured on an enzyme labeling apparatus, and the IC50 value was calculated.

SMMC7721-CSC = assay: MTS cell viability assay, SMMC7721-CSC; type: cell-based; conditions: Table 6, tumor stem cell, 72 hours; read-out: IC50 against SMMC7721-CSC
Procedure: as §1, §2, §3, §4, §5

PANC1 = assay: MTS cell viability assay, PANC1; type: cell-based; conditions: Homo sapiens, PANC-1; Table 7, 72 hours; read-out: IC50 against PANC1
Procedure: as §1, §2, §3, §4, §5

MDA-MB231 = assay: MTS cell viability assay, MDA-MB231; type: cell-based; conditions: Homo sapiens, MDA-MB-231; Table 7, 72 hours; read-out: IC50 against MDA-MB231
Procedure: as §1, §2, §3, §4, §5

GSC-12diff = assay: MTS cell viability assay, differentiated glioblastoma stem cells GSC-12diff; type: cell-based; conditions: Table 7, 72 hours, read-out: IC50 against GSC-12diff
Procedure: as §1, §2, §3, §4, §5

HepG2 = assay: MTS cell viability assay, HepG2; type: cell-based; conditions: Homo sapiens, Table 7, 72 hours, read-out: IC50 against HepG2
Procedure: as §1, §2, §3, §4, §5

MHCC97 = assay: MTS cell viability assay, MHCC97; type: cell-based; conditions: Homo sapiens, Table 7, 72 hours, read-out: IC50 against MHCC97
Procedure: as §1, §2, §3, §4, §5

SMMC7721 liver cancer = assay: Mouse liver cancer model (subcutaneous SMMC7721); type: in vivo, mice; conditions: for tumor volume compared with the control group: 23 days, FIG. 5; for tumor weight compared with the control group: day 23, FIG. 7
Procedure: Establishment of a mouse liver cancer model: 2×10^6 SMMC7721 (containing 30% Matrigel) was subcutaneously injected into the right inguinal region of the mice (NOD/ShiLtJGpt-Prkdc^em26cd52 Il2rg^em26cd22/Gpt(NCG)mic). The model was established when the tumor volume reached 50 mm^3.
According to the weight of mice: in treatment group 1, each mouse was intraperitoneally injected with a CBL solution at 50 mg/kg, and in treatment group 2, each mouse was intraperitoneally injected with a CBL solution at 100 mg/kg. The mice in a control group were injected with an equal volume of a DMSO solvent. The drug was administered once every 2 days, continuing for 23 days. Tumor volume was measured on days 3, 7, 10, 14, 17, 20, and 23. On day 23, the tumor tissue was collected and weighed. The tumor volume changes at different time points are shown in FIG. 5, the tumor tissue collected on day 23 is shown in FIG. 6, and the average tumor weight of different treatment groups is shown in FIG. 7.

[1] = test system: 9 types of cancer stem cells; assay: MTS cell viability assay, summary over 9 types of cancer stem cells; type: cell-based; conditions: FIG. 3, CBL solution at different concentrations
Procedure: as §1, §2, §3, §4, §5

[2] = treatment group 1, 50 mg/kg intraperitoneally once every 2 days
[3] = treatment group 2, 100 mg/kg intraperitoneally once every 2 days

CCCCCc1cc(O)c2c(c1)OC1(C)CCC3C1C2C3(C)C (stereo not shown) [Compound 3a, cannabicyclol] gave an IC50 (ASPC1-CSC) of 14.6 µg/mL (≈ 46.3 µM), an IC50 (SMMC7721-CSC) of 3.85 µg/mL (≈ 12.2 µM) and an IC50 (PANC1) of over 40 µg/mL. The IC50 (MDA-MB231) was over 40 µg/mL, the IC50 (GSC-12diff) was 29.6 µg/mL (≈ 94.3 µM) and the IC50 (HepG2) was over 40 µg/mL. For the same compound, the IC50 (MHCC97) was over 40 µg/mL, the “inhibitory effect on liver cancer, 100 mg/kg compared to 50 mg/kg” value (SMMC7721 liver cancer; 100 mg/kg versus 50 mg/kg dosage, intraperitoneal) was “better inhibitory effect” and the “tumor volume compared with the control group” value (SMMC7721 liver cancer; [2]) was “significantly inhibited”. The “tumor weight compared with the control group” value (SMMC7721 liver cancer; [2]) was “significantly inhibited”, the “tumor volume compared with the control group” value (SMMC7721 liver cancer; [3]) was “significantly inhibited” and the “tumor weight compared with the control group” value (SMMC7721 liver cancer; [3]) was “significantly inhibited”. The “cell viability of 9 types of cancer stem cells at different concentrations” value [1] was “decreased with increasing concentrations”.
